Data taken from patent US10568950B1, “Peptides, combination of peptides and scaffolds for use in immunotherapeutic treatment of various cancers” (Immatics Biotechnologies GmbH, priority 2015, dated 2020).

Key:
[1] = tested on: CD8+ T cells of healthy HLA-A*24+ donors; assay: In vitro immunogenicity: priming of CD8+ T cells with aAPCs loaded with HLA-A*24/peptide complexes and anti-CD28, multimer staining; type: cell-based, human; conditions: in vitro immunogenicity, HLA-A*24 peptides of Table 12B
Protocol: CD8+ T cells were primed using artificial APCs coated with anti-CD28 mAb and HLA-A*24 in complex with SEQ ID NO: 99 peptide (FIG. 5A, left panel), SEQ ID NO: 119 peptide (FIG. 5B, left panel), SEQ ID NO: 142 peptide (FIG. 5C, left panel) and SEQ ID NO: 174 peptide (FIG. 5D, left panel), respectively. After three cycles of stimulation, the detection of peptide-reactive cells was performed by 2D multimer staining with A*24/SEQ ID NO: 99 (A), A*24/SEQ ID NO: 119 (B), A*24/SEQ ID NO: 142 (C) or A*24/SEQ ID NO: 174 (D). Right panels (FIGS. 5A, 5B, 5C and 5D) show control staining of cells stimulated with irrelevant A*24/peptide complexes. Viable singlet cells were gated for CD8+ lymphocytes. Boolean gates helped excluding false-positive events detected with multimers specific for different peptides. Frequencies of specific multimer+ cells among CD8+ lymphocytes are indicated.
In order to obtain information regarding the immunogenicity of the TUMAPs of the present invention, the inventors performed investigations using an in vitro T-cell priming assay based on repeated stimulations of CD8+ T cells with artificial antigen presenting cells (aAPCs) loaded with peptide/MHC complexes and anti-CD28 antibody.
PBMCs and isolated CD8+ lymphocytes were incubated in T-cell medium (TCM) until use consisting of RPMI-Glutamax (Invitrogen, Karlsruhe, Germany) supplemented with 10% heat inactivated human AB serum (PAN-Biotech, Aidenbach, Germany), 100 U/ml Penicillin/100 μg/ml Streptomycin (Cambrex, Cologne, Germany), 1 mM sodium pyruvate (CC Pro, Oberdorla, Germany), 20 μg/ml Gentamycin (Cambrex). 2.5 ng/ml IL-7 (PromoCell, Heidelberg, Germany) and 10 U/ml IL-2 (Novartis Pharma, Nurnberg, Germany) were also added to the TCM at this step.
Generation of pMHC/anti-CD28 coated beads, T-cell stimulations and readout was performed in a highly defined in vitro system using four different pMHC molecules per stimulation condition and 8 different pMHC molecules per readout condition.
The purified co-stimulatory mouse IgG2a anti human CD28 Ab 9.3 (Jung et al., 1987) was chemically biotinylated using Sulfo-N-hydroxysuccinimidobiotin as recommended by the manufacturer (Perbio, Bonn, Germany). Beads used were 5.6 μm diameter streptavidin coated polystyrene particles (Bangs Laboratories, Illinois, USA).
800.000 beads/200 μl were coated in 96-well plates in the presence of 4×12.5 ng different biotin-pMHC, washed and 600 ng biotin anti-CD28 were added subsequently in a volume of 200 μl. Stimulations were initiated in 96-well plates by co-incubating […] CD8+ T cells with 2×10^5 washed coated beads in 200 μl TCM supplemented with 5 ng/ml IL-12 (PromoCell) for 3 days at 37° C. Half of the medium was then exchanged by fresh TCM supplemented with 80 U/ml IL-2 and incubating was continued for 4 days at 37° C. This stimulation cycle was performed for a total of three times. For the pMHC multimer readout using 8 different pMHC molecules per condition, a two-dimensional combinatorial coding approach was used as previously described (Andersen et al., 2012) with minor modifications encompassing coupling to 5 different fluorochromes. Finally, multimeric analyses were performed by staining the cells with Live/dead near IR dye (Invitrogen, Karlsruhe, Germany), CD8-FITC antibody clone SKI (BD, Heidelberg, Germany) and fluorescent pMHC multimers. For analysis, a BD LSRII SORP cytometer equipped with appropriate lasers and filters was used. Peptide specific cells were calculated as percentage of total CD8+ cells. Evaluation of multimeric analysis was done using the FlowJo software (Tree Star, Oreg., USA). In vitro priming of specific multimer+ CD8+ lymphocytes was detected by comparing to negative control stimulations.

[2] = tested on: HLA-A*24; assay: MHC binding assay: UV-ligand exchange, beta2m ELISA (peptide exchange yield); design: species or system human; conditions: binding to HLA-A*24, β2m ELISA
Source text: Candidate peptides for T cell based therapies according to the present invention were further tested for their MHC binding capacity (affinity). The individual peptide-MHC complexes were produced by UV-ligand exchange, where a UV-sensitive peptide is cleaved upon UV-irradiation, and exchanged with the peptide of interest as analyzed. Only peptide candidates that can effectively bind and stabilize the peptide-receptive MHC molecules prevent dissociation of the MHC complexes. To determine the yield of the exchange reaction, an ELISA was performed based on the detection of the light chain (β2m) of stabilized MHC complexes. The assay was performed as generally described in Rodenko et al. (Rodenko et al., 2006).
96 well MAXISorp plates (NUNC) were coated over night with 2 ug/ml streptavidin in PBS at room temperature, washed 4× and blocked for 1 h at 37° C. in 2% BSA containing blocking buffer. […] Peptide-MHC monomers of the UV-exchange reaction were diluted 100 fold in blocking buffer. Samples were incubated for 1 h at 37° C., washed four times, incubated with 2 ug/ml HRP conjugated anti-βm for 1 h at 37° C., washed again and detected with TMB solution that is stopped with […]. Absorption was measured at 450 nm. Candidate peptides that show a high exchange yield (preferably higher than 50%, most preferred higher than 75%) are generally preferred for a generation and production of antibodies or fragments thereof, and/or T cell receptors or fragments thereof, as they show sufficient avidity to the MHC molecules and prevent dissociation of the MHC complexes.

Row | Substance | Peptide exchange (MHC class I binding score, peptide exchange yield) [2] | Wells positive [%] [1]
1 | 98 (VFPRLHNVLF; listed as Homo sapiens) [compound 98] |  | + (<20% = +)
2 | 102 (VYPFENFEF; listed as Homo sapiens) [compound 102] |  | +++ (50%-69% = +++)
3 | 103 (NYIPVKNGKQF; listed as Homo sapiens) [compound 103] |  | + (<20% = +)
4 | 105 (IYNETITDLL; listed as Homo sapiens) [compound 105] |  | + (<20% = +)
5 | 106 (IYNETVRDLL; listed as Homo sapiens) [compound 106] |  | + (<20% = +)
6 | 107 (KYFPYLVVI; listed as Homo sapiens) [compound 107] |  | ++ (20%-49% = ++)
7 | 208 (TYLEKIDGF; listed as Homo sapiens) [compound 208] | ++++ (>= 75% = ++++) | 
8 | 209 (AFIETPIPLF; listed as Homo sapiens) [compound 209] | ++++ (>= 75% = ++++) | 
9 | 211 (VFKSEGAYF; listed as Homo sapiens) [compound 211] | ++++ (>= 75% = ++++) | 
10 | 217 (IYISNSIYF; listed as Homo sapiens) [compound 217] | ++++ (>= 75% = ++++) | 
11 | 248 (AFPTFSVQL; listed as Homo sapiens) [compound 248] | ++++ (>= 75% = ++++) | 
12 | 249 (RYHPTTCTI; listed as Homo sapiens) [compound 249] | ++++ (>= 75% = ++++) | 
13 | 260 (VYMNVMTRL; listed as Homo sapiens) [compound 260] | ++++ (>= 75% = ++++) | 
14 | 261 (GYIKLINFI; listed as Homo sapiens) [compound 261] | ++++ (>= 75% = ++++) | 
15 | 264 (LYTETRLQF; listed as Homo sapiens) [compound 264] | ++++ (>= 75% = ++++) | 
16 | 271 (RFLMKSYSF; listed as Homo sapiens) [compound 271] | ++++ (>= 75% = ++++) | 
17 | 272 (RYVFPLPYL; listed as Homo sapiens) [compound 272] | ++++ (>= 75% = ++++) | 
18 | 274 (KQLDIANYELF; listed as Homo sapiens) [compound 274] | ++++ (>= 75% = ++++) | 
19 | 280 (TYNPNLQDKL; listed as Homo sapiens) [compound 280] | ++++ (>= 75% = ++++) | 
20 | 290 (KYGDFKLLEF; listed as Homo sapiens) [compound 290] | ++++ (>= 75% = ++++) | 
21 | 293 (VYPHFSTTNLI; listed as Homo sapiens) [compound 293] | ++++ (>= 75% = ++++) | 
22 | 298 (AYKSEVVYF; listed as Homo sapiens) [compound 298] | ++++ (>= 75% = ++++) | 
23 | 305 (NYENKQYLF; listed as Homo sapiens) [compound 305] | ++++ (>= 75% = ++++) | 
24 | 313 (KYTHFIQSF; listed as Homo sapiens) [compound 313] | ++++ (>= 75% = ++++) | 
25 | 319 (KYSDVKNLI; listed as Homo sapiens) [compound 319] | ++++ (>= 75% = ++++) | 
26 | 379 (VFIAQGYTL; listed as Homo sapiens) [compound 379] | ++++ (>= 75% = ++++) | 

Second part, led by results:

Row | Peptide exchange (MHC class I binding score, peptide exchange yield) [2] | Substance | Wells positive [%] [1]
27 | ++++ (>= 75% = ++++) | 206 (NYLDVATFL; listed as Homo sapiens) [compound 206] | 
28 | ++++ (>= 75% = ++++) | 210 (IYAGVGEFSF; listed as Homo sapiens) [compound 210] | 
29 | ++++ (>= 75% = ++++) | 220 (SYSEIKDFL; listed as Homo sapiens) [compound 220] | 
30 | ++++ (>= 75% = ++++) | 221 (KYIGNLDLL; listed as Homo sapiens) [compound 221] | 
31 | ++++ (>= 75% = ++++) | 223 (TFITQSPLL; listed as Homo sapiens) [compound 223] | 
32 | ++++ (>= 75% = ++++) | 231 (AFADVSVKF; listed as Homo sapiens) [compound 231] | 
33 | ++++ (>= 75% = ++++) | 252 (AFGQETNVPLNNF; listed as Homo sapiens) [compound 252] | 
34 | ++++ (>= 75% = ++++) | 262 (VYSSQFETI; listed as Homo sapiens) [compound 262] | 
35 | ++++ (>= 75% = ++++) | 265 (SYLNEAFSF; listed as Homo sapiens) [compound 265] | 
36 | ++++ (>= 75% = ++++) | 275 (KYGTLDVTF; listed as Homo sapiens) [compound 275] | 
37 | ++++ (>= 75% = ++++) | 276 (QYLDVLHAL; listed as Homo sapiens) [compound 276] | 
38 | ++++ (>= 75% = ++++) | 286 (SYGTILSHI; listed as Homo sapiens) [compound 286] | 
39 | ++++ (>= 75% = ++++) | 289 (FFHEGQYVF; listed as Homo sapiens) [compound 289] | 
40 | ++++ (>= 75% = ++++) | 292 (FYPQIINTF; listed as Homo sapiens) [compound 292] | 
41 | ++++ (>= 75% = ++++) | 296 (SYQVIFQHF; listed as Homo sapiens) [compound 296] | 
42 | ++++ (>= 75% = ++++) | 297 (TYIDTRTVF; listed as Homo sapiens) [compound 297] | 
43 | ++++ (>= 75% = ++++) | 301 (KFDDVTMLF; listed as Homo sapiens) [compound 301] | 
44 | ++++ (>= 75% = ++++) | 311 (EYLQNLNHI; listed as Homo sapiens) [compound 311] | 
45 | ++++ (>= 75% = ++++) | 357 (QFITSTNTF; listed as Homo sapiens) [compound 357] | 
